From patent publication US20090042874A1, “ANTIDEPRESSANT HETEROARYL DERIVATIVES OF HETEROCYCLE-FUSED BENZODIOXANS” (WYETH, priority 2007, published 2009) come the findings set out here.

The target in assay [1] is T1, Human Serotonin Transporter (h5HT-T) (Homo sapiens, UniProt P31645). Nature of the assay: biochemical.
Method: (§1) MEDIA REAGENTS: Dulbecco's Modified Eagle Medium (DMEM) with High Glucose, L-Glutamine, 110 mg/L Sodium Pyruvate, Pyridoxine Hydrochloride containing: • a) 10% Fetal Bovine Serum, Heat-inactivated and Dialyzed (10,000 Mol Wt.) • b) 1% Pennicilin-streptomycin • c) 100 μg/ml Geneticin/G418 • 2. […] Immediately add 15 ml Cell Culture medium to inactivate trypsin and mix well. […] (eg. 1×T175 flask can seed 20×T175 flasks) • g) Incubate cells at 37° C., 5% CO2, in a humidified incubator. NOTE: Cells will grow to confluence within 3-4 days.
(§2) Cells are resuspended in 3 volumes of 50 mM Tris-HC1 (pH 7.4) to 1 volume of initial cell fraction • 2. Partially homogenize cells by swirling or by using transfer pipetor to make cell solution more homogenous and aliquot solution into 4 clear 50 ml polypropylene centrifuge tubes • 3. Tubes are balanced and spun down at 2,000 rpm for 10 minutes at 4° C. using the HS-4 rotor (rotor code 8) • 4. Supernatant is decanted and pellets resuspend in an additional 75 ml of 50 mM Tris-HCl (pH 7.4)→˜18 ml Tris to each of 4 tubes • 5. Spin cells again at 5, 000 rpm for minutes at 4° C. using the HS-4 rotor and decant supernatant • 6. Resuspend final pellts in appropriate volume of 50 nM Tris to yield protein concentration of ˜6 mg/ml • add 100 ml Tris to original cell suspension of 35 ml • add ˜72 ml; Tris to original cell suspension of 25 ml • 7. Add the appropriate final volume and split the cells into two/three 50 ml Falcon polypropylene tubes. Thoroughly vortex your cell suspension in these tubes to ensure homogeneity before aliquoting. • 8. Pool the samples from the 50 nl tubes into one larger flat-bottom vessel and stir constantly on ice (4° C.). • 9. While stirring, aliquot 1 ml portions out into 1.5 ml cryogenic vials. • 10. Store vials at −70° C. until subsequtn asay. Retain one aliquot for protein concentration, Kd and Bmax determination before starting experiments using new batch of cells. Proetin concentration is determined using the Lowry method.
(§3) Required buffers: • Assay buffer; 50 mM Tris HCl, 120 mM NaCl and 5 mM KCl, pH 7.4 • 2. Binding protocol: Preliminary screening assays are performed using single replicates on duplicate plates. Dose-response binding assays are performed in a single replicates on duplicate OptiPlates (Perkin Elmer) using 0.1 nM to 3 μM of test drug.
(§4) a) To each well add 10 μL of test compound, blank compound (10 μM Fluoxetine), or assay buffer (50 mM Tris HCl, 120 mM NaCl and 5 mM KCl, pH 7.4. Each well is then supplemented with 40 μL of assay buffer.
(§5) The isotope solution is also disuted in 50 mM Tris HCl, 120 mM NaCl and 5 mM KCl, pH 7.4 • c) Resuspend membrane pellet in binding buffer to achieve a solution containing 5 μg of protein in 50 μL. This will yield a final protein concentration of 5 μg/well. • d) To each well add 0.5 mg of Wheatgerm Agglutinin (WGA) SPA beads in 50 μl of 50 mM Tris HCl, 120 mM NaCl and 5 mM KCl, pH 7.4 • e) Incubate plates, while gently shaking, for at least 1 hour so as to reach equilibrium. Plates can still be read if left to incubate overnight without loss of signal. • f) Count plates on TopCount.
(§6) 3H-Citallopram binding is expressed as percent of specific binding, with IC50 and Ki VALUES DETERMINED BY nonlinear regression analysis using the Activity Base software package. Specific binding is defined as total binding observed in the presence of 10 μM fluoxetine.
Another assay has as its target T2, h-5HT1A (Homo sapiens, UniProt P08908).
T2 construct: expressed in transfected cells; host or cells: CHO cells grown in suspension in a 10 liter bioreactor
T2 sequence (P08908 1-422): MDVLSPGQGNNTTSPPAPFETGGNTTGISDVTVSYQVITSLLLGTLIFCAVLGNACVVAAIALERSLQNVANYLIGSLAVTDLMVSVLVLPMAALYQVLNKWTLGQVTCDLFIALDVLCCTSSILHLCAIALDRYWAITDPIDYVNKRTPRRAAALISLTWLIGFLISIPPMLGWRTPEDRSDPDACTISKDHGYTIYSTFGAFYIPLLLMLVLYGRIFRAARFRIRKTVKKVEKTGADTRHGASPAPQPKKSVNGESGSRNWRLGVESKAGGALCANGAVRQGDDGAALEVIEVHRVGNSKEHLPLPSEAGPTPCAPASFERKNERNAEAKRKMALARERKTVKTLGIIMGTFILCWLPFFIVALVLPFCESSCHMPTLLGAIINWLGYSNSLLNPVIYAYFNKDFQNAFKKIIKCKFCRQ
Put plainly: 5HT1A receptor SPA binding assay, [3H]-OH DPAT, CHO cell membranes. The following applies: [3H]-OH DPAT 3 nM. How it is done:
Determination of the Inhibitory Activity of Compounds at the Serotonin 5HT1A Receptor Subtype using Scintillation Proximity Assay (SPA) Technology
Cells: CHO cells expressing the serotonin 5HT1A receptor subtype were grown in suspension in 10 liter bioreactor and supplied as a wet cell pellet
Binding experiments are performed in a total volume of 200 μl using a 96 well microtiter plate format (Packard Optiplate). On the day of the assay, the membranes are thawed and resuspended with enough 50 mM Tris (HCI) pH 7.5, 10 mM MgCl2, 0.2 mM EDTA, 10 μM pargyline, and 0.1% ascorbate (assay buffer) to achieve a protein concentration of 800 μg/ml. To each well of the microtiter plate, 20 μl of 10× test compound in water containing 3.3% DMSO, 3 nM of [3H]-OH DPAT (Amersham, SA: 200 Ci/mmol), 80 μg cell membrane and assay buffer are combined to achieve a volume of 150 μl. Assay buffer and 10 μM cold 5-HT are substituted for the test compound in separate wells to define ‘total’ and ‘nonspecific’ bindings, respectively. The incubation period is initiated by the addition of 50 μl of 10 mg/ml PVT WGA SPA beads (RPNQ0060, Amersham GE Healthcare) resuspended in assay buffer for a final concentration of 0.5 mg/well. The plates are sealed and gently shaken at room temperature using an orbital shaker (setting 1.5) until equilibrium is achieved (2 h-overnight incubation). Radioactivity (CPM) is measured by Packard TopCount (1 min counting time/well).
Specific binding is described as the total radioactivity bound less the amount bound in the presence of 10 μM 5HT, referred to as non-specific binding (NSB). Binding in the presence of varying concentrations of test compounds is expressed as percent of specific binding in the absence of compound.
{(Bound−NSB)/(Total−NSB)}×100=% Total
Regression analysis of % bound data from ten concentrations is performed in GraphPad Prism, XL Fit or equivalent software. IC50 values are calculated using a four-parameter logistic curve fitting model and Ki values are calculated by the Cheng-Prusoff equation below: […]
where L is the nM concentration of the radioactive ligand used and the Kd is the dissociation constant of the ligand for the receptor. The Kd for [3H-OH DPAT in the SPA binding format is 3 nM. • Single dose
Percent inhibition: The displacement of […] by the test compound at h5-HT1A as determined by: [(Total DPM−compound DPM)/(Total DPM−NSB DPM)]×100. • Conc.: concentration of test compound; NBS: non-specific binding; DPM: disintegrations per min

The target of assay [2] is T1, Human Serotonin Transporter (h5HT-T). Particulars: read-out: human SERT SPA binding assay Ki.
Method: as §1, §2, §3, §4, §5, §6
The target of assay [3] is T3, cloned human 5HT1A receptors (Homo sapiens, UniProt P08908).
T3 construct: expressed in transfected cells
T3 sequence (P08908 1-422): T2 sequence (P08908 1-422)
Nature of the assay: 35S-GTPγS binding assay, agonist/antagonist activity at 5HT1A receptors. The format is biochemical. How it is done: Determination of […] or Antagonist Activity at 5HT1A Receptors
Antagonist or antagonist activity at 5HT1A receptors was established by using a ^35S-GTPγS binding assay similar to that used by Lazareno and Birdsall (Br. J. Pharmacol. 109: 1120, 1993), in which the test compound's ability to affect the binding of ^35S-GTPγS to membranes containing cloned human 5HT1A receptors was determined. Agonists produce an increase in binding whereas antagonists produce no increase but rather reverse the effects of the standard agonist 8-OH-DPAT. The test compound's maximum inhibitory effect is represented as the Imax, while its potency is defined by the IC50. The results of the three standard experimental test procedures described in the preceding three paragraphs were as follows: […]
In general terms: GTPγS is a poorly hydrolysed GTP analogue; its binding reports G protein activation.

For the next assay, the target named is T4, serotonin transporter (Rattus norvegicus, UniProt P31652).
T4 construct: displace ^3H-paroxetine from male rat frontal cortical membranes; from tissue; host or cells: male rat frontal cortex membranes
T4 sequence (P31652 whole entry): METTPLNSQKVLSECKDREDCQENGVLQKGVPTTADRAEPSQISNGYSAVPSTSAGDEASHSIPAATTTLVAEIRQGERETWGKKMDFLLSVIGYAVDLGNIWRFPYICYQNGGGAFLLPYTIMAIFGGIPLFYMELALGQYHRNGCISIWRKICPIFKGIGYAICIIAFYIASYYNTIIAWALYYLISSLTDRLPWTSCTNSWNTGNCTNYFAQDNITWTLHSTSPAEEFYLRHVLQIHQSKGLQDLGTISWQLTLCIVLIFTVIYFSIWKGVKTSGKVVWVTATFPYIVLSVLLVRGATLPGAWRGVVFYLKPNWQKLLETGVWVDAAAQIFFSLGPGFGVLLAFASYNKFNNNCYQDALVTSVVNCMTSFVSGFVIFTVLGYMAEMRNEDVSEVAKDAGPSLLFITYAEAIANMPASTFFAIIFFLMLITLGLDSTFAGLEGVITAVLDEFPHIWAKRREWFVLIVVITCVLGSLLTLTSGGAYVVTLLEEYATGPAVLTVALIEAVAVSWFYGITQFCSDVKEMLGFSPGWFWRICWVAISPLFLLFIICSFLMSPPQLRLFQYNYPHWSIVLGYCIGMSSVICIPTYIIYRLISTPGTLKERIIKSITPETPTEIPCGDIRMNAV
Nature of the assay: Displacement of 3H-paroxetine from male rat frontal cortical membranes (serotonin transporter affinity). The following applies: 3H-paroxetine displacement, read-out: 5-HT Transporter Affinity Ki. Format: binding. An excerpt:
Affinity of Compounds of the Invention for the Serotonin Transporter
For orientation: Loss of bound radioactivity is the signal in a displacement assay; it reports binding, not function.

The target in a further assay is T5, human 5HT1A receptors (Homo sapiens, UniProt P08908).
T5 construct: expressed in transfected cells; host or cells: CHO cells
T5 sequence (P08908 1-422): T2 sequence (P08908 1-422)
Nature of the assay: Displacement of [3H] 8-OH-DPAT from 5HT1A receptor, CHO cells stably transfected with human 5HT1A receptors. The format is binding. Particulars: [3H] 8-OH-DPAT displacement, CHO cells with human 5HT1A; read-out: 5HT1A Receptor Affinity Ki. From the text: High affinity for the serotonin 5HT1A receptor was established by testing the claimed compound's ability to displace [^3H] 8-OH-DPAT (dipropylamino-tetralin) from the 5HT1A serotonin receptor following a modification of the procedure of Hall et al., J. Neurochem. 44, 1685 (1985) which utilizes CHO cells stably transfected with human 5HT1A receptors.

Counter-ions that a name gives are not always drawn. Like-named read-outs stand apart in the source and are kept apart here.

T1 sequence (P31645 whole entry): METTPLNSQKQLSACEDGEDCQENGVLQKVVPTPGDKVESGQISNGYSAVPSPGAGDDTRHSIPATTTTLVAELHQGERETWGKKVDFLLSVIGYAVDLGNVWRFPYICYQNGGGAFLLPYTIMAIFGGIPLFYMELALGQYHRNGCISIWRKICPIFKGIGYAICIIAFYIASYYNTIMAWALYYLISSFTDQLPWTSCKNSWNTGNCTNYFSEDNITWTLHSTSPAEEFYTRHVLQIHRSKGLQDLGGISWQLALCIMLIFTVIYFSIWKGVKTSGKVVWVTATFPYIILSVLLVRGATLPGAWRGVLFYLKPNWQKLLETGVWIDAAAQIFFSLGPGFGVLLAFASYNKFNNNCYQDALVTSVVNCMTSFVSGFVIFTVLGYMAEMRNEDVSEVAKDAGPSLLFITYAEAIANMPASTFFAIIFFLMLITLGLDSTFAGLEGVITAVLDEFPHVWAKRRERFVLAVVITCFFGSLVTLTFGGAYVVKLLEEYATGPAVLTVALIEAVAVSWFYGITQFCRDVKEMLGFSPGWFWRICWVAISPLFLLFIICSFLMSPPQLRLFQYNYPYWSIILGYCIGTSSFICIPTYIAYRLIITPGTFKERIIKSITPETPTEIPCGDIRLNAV

What is called Ki is a measure of affinity in units of concentration, obtained from inhibition or displacement. Consider `Cc1ccc2c3c(ccc2n1)OC[C@H](CN1CCC[C@H](Oc2ccc4c(c2)NC(=O)CO4)C1)O3` [Example 26, 6-{[(3S)-1-{[(2S)-8-Methyl-2,3-dihydro[1,4]dioxino[2,3-f]quinolin-2-yl]methyl}piperidin-3-yl]oxy}-2H-1,4-benzoxazin-3(4H)-one], for which the Ki came to 376 nM in assay [1] and 361 nM on h-5HT1A.
For “8-Fluoro-6-[(1-{[(2S)-8-methyl-2,3-dihydro[1,4]dioxino[2,3-f]quinolin-2-yl]methyl}piperidin-4-yl)methyl]-2H-1,4-benzoxazin-3(4H)-one [Example 21b]”, the Ki was 1.74 nM in assay [2] and 1.12 nM on h-5HT1A.
With `Cc1ccc2c3c(ccc2n1)OC[C@H](CN1C2CCC1CC(Cc1ccc4c(c1)NC(=O)CC4)C2)O3` (stereo partly drawn) [Example 23, 7-[(8-{[(2S)-8-Methyl-2,3-dihydro[1,4]dioxino[2,3-f]quinolin-2-yl]methyl}-8-azabicyclo[3.2.1]oct-3-yl)methyl]-3,4-dihydroquinolin-2(1H)-one], the results for the Ki (in assay [1]; at h-5HT1A) were 12.4 nM and 2.42 nM, respectively.
The like results for `Cc1ccc2c3c(ccc2n1)OC[C@H](CN1CCCC(Cc2ccc4c(c2)NC(=O)CC4)C1)O3` (stereo partly drawn) [Example 24, 7-[(1-{[(2S)-8-Methyl-2,3-dihydro[1,4]dioxino[2,3-f]quinolin-2-yl]methyl}piperidin-3-yl)methyl]-3,4-dihydroquinolin-2(1H)-one] were, in that order, 9.77 nM and 2.33 nM.
In the case of `Cc1ccc2c3c(ccc2n1)OC[C@H](CN1CCC(Cc2ccc4c(c2)NC(=O)CC4)CC1)O3` [Example 20, 7-[(1-{[(2S)-8-Methyl-2,3-dihydro[1,4]dioxino[2,3-f]quinolin-2yl]methyl}piperidin-4-yl)methyl]-3,4-dihydroquinolin-2(1H)-one], the Ki in assay [1] turned out to be 5.88 nM; on h-5HT1A, 1.15 nM.
As to `Cc1ccc2c3c(ccc2n1)OC[C@H](CN1CCC[C@@H](Oc2ccc4c(c2)NC(=O)CO4)C1)O3` [Example 25, 6-{[(3R)-1-{[(2S)-8-Methyl-2,3-dihydro[1,4]dioxino[2,3-f]quinolin-2-yl]methyl}piperidin-3-yl]oxy}-2H-1,4-benzoxazin-3(4H)-one], the Ki was determined as 146 nM in assay [1] and 13.8 nM at h-5HT1A.
Take “8-Fluoro-6-[(1-{[(2S)-8-methyl-2,3-dihydro[1,4]dioxino[2,3-f]quinolin-2-yl]methyl}piperidin-4-yl)methyl]-2H-1,4-benzoxazin-3(4H)-one [Example 21a]”: the values for the inhibitory constant (Ki) (in assay [2]; at h-5HT1A) were 68.2 nM and 15.5 nM, respectively.
Usually IC50 stands for the concentration at which inhibition is half-maximal. For the molecule `Cc1ccc2c3c(ccc2n1)OC[C@H](CN1CCC(Oc2ccc4c(c2)NC(=O)CO4)CC1)O3` [Example 1, 6-[(1-{[(2S)-8-methyl-2,3-dihydro[1,4]dioxino[2,3-f]quinolin-2-yl]methyl}piperidin-4-yl)oxy]-2H-1,4-benzoxazin-3(4H)-one dihydrochloride salt], in assay [3] (reversal of 8-OH-DPAT effect, read-out: 5HT1A Function IC50), the half-maximal inhibitory concentration (IC50) was determined as 59.3 nM. For the same molecule, the “5HT1A Function Imax (maximum inhibitory effect)” value in assay [3] (value in parentheses) is recorded as 97. In addition, the Ki was found to be 9.5 nM at serotonin transporter and 0.26 nM on human 5HT1A receptors.
